According to US20060140970A1, “Proteic binding partners of TCTP and methods of modulating tumor reversion or cell apoptosis” (priority 2003, published 2006):

Tests used:
[1] = system: OP18 phosphorylation in 293 HEK cells; experiment: OP18 phosphorylation state, native PAGE and immunoblot; format: cell-based; conditions: nocodazole 250 ng/ml, control cells
Protocol: Transfection, preparation of native OP18 enriched extracts, and analysis of OP18 phosphorylation levels. 293 T cells were transfected by the standard calcium phosphate method, with the following constructs: pEYFP (Clontech, BD) (negative control), pEYFP-TCTP wide type (WT) or the mutant pEYFP-TCTP S46A/S64A. Twenty four hours after the transfection, the cells were treated with nocodazole (250 ng/ml) for 0 hour, 1 hour, 2 hours, 4 hours and 8 hours, and rinsed twice in PBS. The pellets were lyzed with 3-5 volumes of lysis buffer (50 mM Tris-HCl, pH 7.5, 250 mM NaCl, 10 mM EDTA, 1% Nonidet P-40, protease inhibitors cocktail and phosphatases inhibitors (10 mM sodium orthovanadate, 10 mM natrium fluoride (NAF)) on ice for 20 minutes, and centrifuged for 10 minutes at 14,000 rpm at 4° C. The supernatants were carefully removed and stored on ice while measuring their concentration of proteins by spectrophotometry at 595 nm (Bradford method). To enrich the concentration of OP18 in the extracts, 1.2 mg of each total extract was boiled at 75° C. for 7 minutes, put on ice for 1 minute, and centrifuged for 10 minutes at 14,000 rpm at 4° C. Then, the supernatants were precipitated in 5-6 volumes of 1% sucrose in methanol O/N at −20° C. […]

293T HEK cells = experiment: Polymerized tubulin fraction in cells, western blot anti-α-tubulin; format: cell-based
Protocol: […] The treated cells were rinsed twice in PBS, lyzed on plates with 250 μl of a microtubule-stabilizing buffer (20 mM Tris-HCl, pH 6.8, 140 mM NaCl, 0.5 % Nonidet P-40, 1 mM MgCl2, 2 mM EGTA, 4 μg/ml Taxol, protease inhibitors cocktail), scraped and transferred into a 1.5 ml microcentrifuge tube. Each plate was rinsed with a second 250 μl of lysis buffer, and the cell lysates were pooled. The lysis occurred for 20 minutes at room temperature. The microcentrifuge tubes containing 500 μl of lyzed cells contents were briefly mixed and then centrifuged at 14,000 rpm for 10 minutes at 4° C. Supernatants containing soluble tubulin were carefully separated from pellets containing polymerized tubulin and placed in a separate tube. The pellets were quickly rinsed with additional 20 μl of lysis buffer and resuspended in 125 μl of water. […] The concentration of proteins in the supernatants was measured by spectrophotometry at 595 nm (Bradford method). Using these soluble tubulin concentration values, 60 μg of the polymerized tubulin fractions were run on a 10% acrylamide gel (SDS-PAGE system) and transferred on a nitrocellulose membrane (Biorad) that was incubated with an anti-a-tubulin (Sigma) diluted 1/2000. Since TCTP overexpression lead to a decrease of OP18 phosphorylation, and consequently, contribute to the maintenance of OP18 in its active state, it was hypothesized that TCTP overexpression would induce the microtubule depolymerization. To confirm this hypothesis, an assay that enables the isolation and monitoring of the tubulin in a microtubule polymerized state only, but not in a free soluble state, was performed. Briefly, after lysis of cells in a hypotonic buffer containing low dose of Taxol (a microtubule stabilizing agent) and a centrifugation, the polymerized fraction of tubulin was preserved and purified. Then, the amount of polymerized tubulin in cells was monitored by western blot using an anti-α-tubulin antibody.

## COC(=O)Nc1nc2ccc(C(=O)c3cccs3)cc2[nH]1 [nocodazole]
[1]
  time from which OP18 with three (3-P) and four (4-P) phosphorylated sites is detectable: ≥ 2 h
293T HEK cells; 16 hours of treatment, compared to untreated cells
  amount of polymerized tubulin: no polymerized tubulin was present
293T HEK cells; nocodazole 250 ng/ml, increasing time, transfected 293T HEK cells
  tubulin polymerization during nocodazole treatment: decreased proportionally to the time length of treatment
